# Assays:
# [1] = LogD7.4 measurement, shake flask method; type: physicochemical; details: n-octanol/DPBS pH 7.4, n = 3
# Protocol: The logD7.4 values of all the ^177Lu-labeled GRPR-targeted ligands were measured using the shake flask method as previously reported. An aliquot (~2 MBq) of the radiolabeled product was added to a mixture of n-octanol (3 mL) and DPBS (3 mL, pH 7.4), followed by 1 min vortexing and 15 min centrifugation at 5000 rpm. Samples of the n-octanol (1 mL) and buffer (1 mL) layers were collected, and the activity was counted using a gamma counter. The logD7.4 values were calculated using the following equation: logD7.4=log10[countsn−octanolphase/countsbutterphase]
# [2] = Ex vivo biodistribution in PC-3 tumor-bearing mice; details: mouse; for tissue uptake at 4 h: 4 h post-injection; for tissue uptake at 24 h: 24 h post-injection; for tissue uptake at 72 h: 72 h post-injection; for tissue uptake at 120 h: 120 h post-injection
# Protocol: (§1) SPECT/CT imaging experiments were performed using an MILabs (Houten, The Netherlands) U-SPECT-II/CT scanner with a custom-made ultra-high-sensitivity big mouse collimator (2 mm pinhole size) following previously reported procedures. […] Male NOD.Cg-Rag1^tm1Mom Il2rg^tm1Wjl/SzJ (NRG) mice were used in these experiments because of their immunodeficient characteristics and excellent radiation tolerance. Mice were anaesthetized and subcutaneously implanted with 5 × 10^6 PC-3 prostate cancer cells (100 µL; 1:1 PBS/Matrigel) behind the left shoulder. SPECT/CT imaging and biodistribution studies were performed once the tumors reached a diameter of 5–8 mm, typically after approximately 4 weeks of growth.
# (§2) For ex vivo biodistribution studies, the mice were injected with ~2–6 MBq of the radioligand. […] Blocking study was conducted at 1 h post-injection via co-injection of the radioligand with 100 μg of [D-Phe^6,Leu-NHEt^13,des-Met^14]Bombesin(6–14). Organs/tissues of interested were collected, weighed, and measured using an automatic gamma counter.
# PC-3 tumor-bearing mice = test: Ex vivo biodistribution in PC-3 tumor-bearing mice
# Protocol: as §1, §2
# [3] = system: PC-3 tumor-bearing NRG mouse; test: Longitudinal SPECT/CT imaging in PC-3 tumor-bearing mice; type: in vivo, mice (NRG); details: SPECT/CT images
# Protocol: The PC-3 tumor-bearing mice were sedated (2.5% isoflurane in O2) and injected with ^177Lu-labeled ligands (15–32 MBq) through a lateral caudal tail vein. […] At each time point, a 5 min CT scan was obtained using 615 μA and 60 kV parameters for localization and attenuation, followed by 2 × 30 min static SPECT scans acquired in list mode with an energy window centered around 208 keV. The MILabs U-SPECT II reconstruction software (version 8.00) was used to reconstruct data, and the images were decay corrected to the time of injection with PMOD v 3.402 (PMOD Technologies GmbH, Fallanden, Switzerland).
# [4] = PC-3 tumor, Uptake in PC-3 tumor
# [5] = adrenal glands, Uptake in adrenal glands
# [6] = large intestine, Uptake in large intestine
# [7] = small intestine, Uptake in small intestine
# [8] = 1 h post-injection, 100 µg [D-Phe6,Leu-NHEt13,des-Met14]Bombesin(6–14)
smiles,measurement,setting,value
"CC(C)C[C@@H](CN1CSC[C@H]1C(N)=O)NC(=O)[C@H](Cc1cnc[nH]1)NC(=O)CN(C)C(=O)[C@@H](NC(=O)[C@H](C)NC(=O)[C@H](Cc1c[nH]c2ccccc12)NC(=O)[C@H](CCC(N)=O)NC(=O)[C@@H](Cc1ccccc1)NC(=O)CN1CCC(NC(=O)CN2CCN(CC(=O)O)CCN(CC(=O)O)CCN(CC(=O)O)CC2)CC1)C(C)C [[^177Lu]Lu-TacsBOMB5, metal not drawn]",logD,[1],-2.53 ± 0.2
same,tissue uptake at 1 h,"[2]; PC-3 tumor, 100 ug, Uptake in PC-3 tumor, 1 h blocked (co-injected with 100 µg [D-Phe6,Leu-NHEt13,des-Met14]Bombesin(6-14))",2.53 ± 0.34 %ID/g
same,tissue uptake at 1 h,"[2]; PC-3 tumor, Uptake in PC-3 tumor, 1 h post-injection",8.71 ± 0.53 %ID/g
same,tissue uptake at 4 h,[2]; [4],4.8 ± 0.32 %ID/g
same,tissue uptake at 24 h,[2]; [4],1.77 ± 0.27 %ID/g
same,tissue uptake at 72 h,[2]; [4],1.09 ± 0.19 %ID/g
same,tissue uptake at 120 h,[2]; [4],< 1 %ID/g
same,tissue uptake at 1 h,"[2]; adrenal glands, 100 ug, Uptake in adrenal glands, 1 h blocked (co-injected with 100 µg [D-Phe6,Leu-NHEt13,des-Met14]Bombesin(6-14))",0.17 ± 0.04 %ID/g
same,tissue uptake at 1 h,"[2]; adrenal glands, Uptake in adrenal glands, 1 h post-injection",0.61 ± 0.28 %ID/g
same,tissue uptake at 4 h,[2]; [5],0.29 ± 0.07 %ID/g
same,tissue uptake at 24 h,[2]; [5],0.17 ± 0.02 %ID/g
same,tissue uptake at 72 h,[2]; [5],0.18 ± 0.12 %ID/g
same,tissue uptake at 120 h,[2]; [5],0.12 ± 0.08 %ID/g
same,tissue uptake at 1 h,"[2]; blood, 100 ug, Uptake in blood, 1 h blocked (co-injected with 100 µg [D-Phe6,Leu-NHEt13,des-Met14]Bombesin(6-14))",0.45 ± 0.11 %ID/g
same,tissue uptake at 1 h,"[2]; blood, Uptake in blood, 1 h post-injection",1.77 ± 0.14 %ID/g
same,tissue uptake at 24 h,"[2]; blood, Uptake in blood",0.21 ± 0.02 %ID/g
same,tissue uptake at 72 h,"[2]; blood, Uptake in blood",0.07 ± 0.01 %ID/g
same,tissue uptake at 1 h,"[2]; bone, 100 ug, Uptake in bone, 1 h blocked (co-injected with 100 µg [D-Phe6,Leu-NHEt13,des-Met14]Bombesin(6-14))",0.06 ± 0.03 %ID/g
same,tissue uptake at 1 h,"[2]; bone, Uptake in bone, 1 h post-injection",0.12 ± 0.02 %ID/g
same,tissue uptake at 4 h,"[2]; bone, Uptake in bone",0.09 ± 0.03 %ID/g
same,tissue uptake at 24 h,"[2]; bone, Uptake in bone",0.07 ± 0.02 %ID/g
same,tissue uptake at 72 h,"[2]; bone, Uptake in bone",0.07 ± 0.01 %ID/g
same,tissue uptake at 120 h,"[2]; bone, Uptake in bone",0.07 ± 0.01 %ID/g
same,tissue uptake at 1 h,"[2]; brain, 100 ug, Uptake in brain, 1 h blocked (co-injected with 100 µg [D-Phe6,Leu-NHEt13,des-Met14]Bombesin(6-14))",0.02 %ID/g
same,tissue uptake at 1 h,"[2]; brain, Uptake in brain, 1 h post-injection",0.04 %ID/g
same,tissue uptake at 4 h,"[2]; brain, Uptake in brain",0.02 %ID/g
same,tissue uptake at 1 h,"[2]; fat, 100 ug, Uptake in fat, 1 h blocked (co-injected with 100 µg [D-Phe6,Leu-NHEt13,des-Met14]Bombesin(6-14))",0.06 ± 0.01 %ID/g
same,tissue uptake at 1 h,"[2]; fat, Uptake in fat, 1 h post-injection",0.15 ± 0.04 %ID/g
same,tissue uptake at 4 h,"[2]; fat, Uptake in fat",0.06 ± 0.01 %ID/g
same,tissue uptake at 72 h,"[2]; fat, Uptake in fat",0.02 ± 0.01 %ID/g
same,tissue uptake at 120 h,"[2]; fat, Uptake in fat",0.01 ± 0.01 %ID/g
same,tissue uptake at 1 h,"[2]; heart, 100 ug, Uptake in heart, 1 h blocked (co-injected with 100 µg [D-Phe6,Leu-NHEt13,des-Met14]Bombesin(6-14))",0.15 ± 0.02 %ID/g
same,tissue uptake at 1 h,"[2]; heart, Uptake in heart, 1 h post-injection",0.45 ± 0.06 %ID/g
same,tissue uptake at 4 h,"[2]; heart, Uptake in heart",0.21 ± 0.03 %ID/g
same,tissue uptake at 24 h,"[2]; heart, Uptake in heart",0.09 ± 0.01 %ID/g
same,tissue uptake at 72 h,"[2]; heart, Uptake in heart",0.05 ± 0.01 %ID/g
same,tissue uptake at 120 h,"[2]; heart, Uptake in heart",0.04 ± 0.01 %ID/g
same,tissue uptake at 4 h,"[2]; in vivo, Uptake in blood",0.85 ± 0.03 %ID/g
same,tissue uptake at 24 h,"[2]; in vivo, Uptake in pancreas",0.08 ± 0.02 %ID/g
same,tissue uptake at 72 h,"[2]; in vivo, Uptake in testes",0.08 ± 0.04 %ID/g
same,tissue uptake at 120 h,"[2]; in vivo, Uptake in testes",0.08 ± 0.02 %ID/g
same,tissue uptake at 1 h,"[2]; kidneys, 100 ug, Uptake in kidneys, 1 h blocked (co-injected with 100 µg [D-Phe6,Leu-NHEt13,des-Met14]Bombesin(6-14))",2.78 ± 0.51 %ID/g
same,tissue uptake at 1 h,"[2]; kidneys, Uptake in kidneys, 1 h post-injection",3.47 ± 0.29 %ID/g
same,tissue uptake at 4 h,"[2]; kidneys, Uptake in kidneys",3.1 ± 0.35 %ID/g
same,tissue uptake at 24 h,"[2]; kidneys, Uptake in kidneys",1.38 ± 0.18 %ID/g
same,tissue uptake at 72 h,"[2]; kidneys, Uptake in kidneys",0.6 ± 0.07 %ID/g
same,tissue uptake at 120 h,"[2]; kidneys, Uptake in kidneys",0.39 ± 0.11 %ID/g
same,tissue uptake at 1 h,"[2]; large intestine, 100 ug, Uptake in large intestine, 1 h blocked (co-injected with 100 µg [D-Phe6,Leu-NHEt13,des-Met14]Bombesin(6-14))",0.13 ± 0.04 %ID/g
same,tissue uptake at 1 h,"[2]; large intestine, Uptake in large intestine, 1 h post-injection",0.31 ± 0.09 %ID/g
same,tissue uptake at 4 h,[2]; [6],0.42 ± 0.09 %ID/g
same,tissue uptake at 24 h,[2]; [6],0.42 ± 0.25 %ID/g
same,tissue uptake at 1 h,"[2]; liver, 100 ug, Uptake in liver, 1 h blocked (co-injected with 100 µg [D-Phe6,Leu-NHEt13,des-Met14]Bombesin(6-14))",0.29 ± 0.05 %ID/g
same,tissue uptake at 1 h,"[2]; liver, Uptake in liver, 1 h post-injection",0.67 ± 0.07 %ID/g
same,tissue uptake at 4 h,"[2]; liver, Uptake in liver",0.54 ± 0.04 %ID/g
same,tissue uptake at 24 h,"[2]; liver, Uptake in liver",0.29 ± 0.02 %ID/g
same,tissue uptake at 120 h,"[2]; liver, Uptake in liver",0.16 ± 0.07 %ID/g
same,tissue uptake at 1 h,"[2]; lungs, 100 ug, Uptake in lungs, 1 h blocked (co-injected with 100 µg [D-Phe6,Leu-NHEt13,des-Met14]Bombesin(6-14))",0.37 ± 0.04 %ID/g
same,tissue uptake at 1 h,"[2]; lungs, Uptake in lungs, 1 h post-injection",2.2 ± 0.93 %ID/g
same,tissue uptake at 4 h,"[2]; lungs, Uptake in lungs",1.45 ± 0.34 %ID/g
same,tissue uptake at 24 h,"[2]; lungs, Uptake in lungs",0.25 ± 0.03 %ID/g
same,tissue uptake at 72 h,"[2]; lungs, Uptake in lungs",0.13 ± 0.01 %ID/g
same,tissue uptake at 120 h,"[2]; lungs, Uptake in lungs",0.07 ± 0.03 %ID/g
same,tissue uptake at 1 h,"[2]; muscle, 100 ug, Uptake in muscle, 1 h blocked (co-injected with 100 µg [D-Phe6,Leu-NHEt13,des-Met14]Bombesin(6-14))",0.13 ± 0.03 %ID/g
same,tissue uptake at 1 h,"[2]; muscle, Uptake in muscle, 1 h post-injection",0.22 ± 0.01 %ID/g
same,tissue uptake at 72 h,"[2]; muscle, Uptake in muscle",0.02 %ID/g
same,tissue uptake at 120 h,"[2]; muscle, Uptake in muscle",0.01 %ID/g
same,tissue uptake at 1 h,"[2]; pancreas, 100 ug, Uptake in pancreas, 1 h blocked (co-injected with 100 µg [D-Phe6,Leu-NHEt13,des-Met14]Bombesin(6-14))",0.59 ± 0.11 %ID/g
same,tissue uptake at 1 h,"[2]; pancreas, Uptake in pancreas, 1 h post-injection",1.08 ± 0.22 %ID/g
same,tissue uptake at 4 h,"[2]; pancreas, Uptake in pancreas",0.21 ± 0.01 %ID/g
same,tissue uptake at 72 h,"[2]; pancreas, Uptake in pancreas",0.04 ± 0.01 %ID/g
same,tissue uptake at 120 h,"[2]; pancreas, Uptake in pancreas",0.02 %ID/g
same,tissue uptake at 1 h,"[2]; small intestine, 100 ug, Uptake in small intestine, 1 h blocked (co-injected with 100 µg [D-Phe6,Leu-NHEt13,des-Met14]Bombesin(6-14))",0.26 ± 0.04 %ID/g
same,tissue uptake at 1 h,"[2]; small intestine, Uptake in small intestine, 1 h post-injection",0.6 ± 0.16 %ID/g
same,tissue uptake at 4 h,[2]; [7],0.19 ± 0.05 %ID/g
same,tissue uptake at 24 h,[2]; [7],0.09 ± 0.03 %ID/g
same,tissue uptake at 120 h,[2]; [7],0.02 %ID/g
same,tissue uptake at 1 h,"[2]; spleen, 100 ug, Uptake in spleen, 1 h blocked (co-injected with 100 µg [D-Phe6,Leu-NHEt13,des-Met14]Bombesin(6-14))",0.15 ± 0.02 %ID/g
same,tissue uptake at 1 h,"[2]; spleen, Uptake in spleen, 1 h post-injection",0.31 ± 0.03 %ID/g
same,tissue uptake at 24 h,"[2]; spleen, Uptake in spleen",0.16 ± 0.03 %ID/g
same,tissue uptake at 72 h,"[2]; spleen, Uptake in spleen",0.18 ± 0.05 %ID/g
same,tissue uptake at 120 h,"[2]; spleen, Uptake in spleen",0.14 ± 0.06 %ID/g
same,tissue uptake at 1 h,"[2]; stomach, 100 ug, Uptake in stomach, 1 h blocked (co-injected with 100 µg [D-Phe6,Leu-NHEt13,des-Met14]Bombesin(6-14))",0.06 ± 0.01 %ID/g
same,tissue uptake at 24 h,"[2]; stomach, Uptake in stomach",0.27 ± 0.16 %ID/g
same,tissue uptake at 120 h,"[2]; stomach, Uptake in stomach",0.02 ± 0.02 %ID/g
same,tissue uptake at 1 h,"[2]; testes, 100 ug, Uptake in testes, 1 h blocked (co-injected with 100 µg [D-Phe6,Leu-NHEt13,des-Met14]Bombesin(6-14))",0.18 ± 0.02 %ID/g
same,tissue uptake at 1 h,"[2]; testes, Uptake in testes, 1 h post-injection",0.45 ± 0.11 %ID/g
same,tissue uptake at 24 h,"[2]; testes, Uptake in testes",0.12 ± 0.02 %ID/g
same,reduction of average pancreas uptake by co-injection of blocker,PC-3 tumor-bearing mice; [8],45%
same,reduction of average tumor uptake by co-injection of blocker,PC-3 tumor-bearing mice; [8],71%
same,uptake in PC-3 tumor xenografts cleared within 24 h,PC-3 tumor-bearing mice; relative to 1 h uptake,Approximately 80%
same,excretion pathway,[3],excreted mainly via the renal pathway
